Where a SMILES comes first, the peptide text is derived from it. Bridges are numbered along the chain shown (N, C = ends). [ ]: non-standard residue; d: D form. The star is where a group is joined. hPhe(3-Cl-4-CF3) = N[C@@H](CCc1ccc(C(F)(F)F)c(Cl)c1)C(=O)O; NPrPhe(4-CF3) = CCCN[C@@H](Cc1ccc(C(F)(F)F)cc1)C(=O)O; NEtPhe(4-Me) = CCN[C@@H](Cc1ccc(C)cc1)C(=O)O; NMeGly(cPent) = CN[C@H](C(=O)O)C1CCCC1; NMeD = CN[C@@H](CC(=O)O)C(=O)O; NMeL = CN[C@@H](CC(C)C)C(=O)O; Morpholide = C1CN(*)CCO1; NMeA = CN[C@@H](C)C(=O)O; Pyrrolidide = C1CCN(*)C1; Ac5c = NC1(C(=O)O)CCCC1; Aze = O=C(O)[C@@H]1CCN1; NPrGly = CCCNCC(=O)O; Sar = CNCC(=O)O
Assays:
[1] = test system: human lung cancer strain NCI-H441; format: cell-based
Method in brief: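 Signal came from […] measured per well once the reagent was added. Beforehand, cells were cultured at 37°C and 5% carbon dioxide on a compound series serially diluted in dimethyl sulfoxide.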

HRAS wild-type protein = HRAS wild-type protein (Homo sapiens, UniProt P01112); assay: Binding to HRAS by surface plasmon resonance (SPR), KD and KD ratio to KRAS
Method in brief: (§1)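 Recombinant RAS proteins bearing a biotinylated Avi tag and loaded with GDP served as the captured ligand, recaptured fresh every cycle. Binding responses were referenced to an uncoated surface and a buffer-only blank cycle. Dissociation constants were obtained by 1:1 model fitting at 30°C.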

[2] = biological target: GDP-bound NRAS wild-type protein (Homo sapiens, UniProt P01111); assay: Binding to NRAS by surface plasmon resonance (SPR), KD and KD ratio to KRAS
Method in brief: as §1

[3] = ratio of KD for HRAS wild-type protein to KD for KRAS
[4] = ratio of KD for GDP-bound NRAS wild-type protein to KD for KRAS
[5] = ratio of the KD value with respect to HRAS wild-type protein to the KD value with respect to KRAS
[6] = ratio of the KD value with respect to GDP-bound NRAS wild-type protein to the KD value with respect to KRAS
[7] = ratio of KD value for HRAS wild-type protein to KD value for KRAS (SPR)
[8] = ratio of KD value for GDP-bound NRAS wild-type protein to KD value for KRAS (SPR)

GDP-bound NRAS wild-type protein, sequence (P01111 whole entry): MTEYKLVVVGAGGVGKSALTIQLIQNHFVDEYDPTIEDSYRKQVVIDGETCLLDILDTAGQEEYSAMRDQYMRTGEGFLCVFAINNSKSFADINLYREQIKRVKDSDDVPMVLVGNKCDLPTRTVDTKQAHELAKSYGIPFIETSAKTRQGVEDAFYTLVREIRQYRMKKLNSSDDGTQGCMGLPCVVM
HRAS wild-type protein, sequence (P01112 whole entry): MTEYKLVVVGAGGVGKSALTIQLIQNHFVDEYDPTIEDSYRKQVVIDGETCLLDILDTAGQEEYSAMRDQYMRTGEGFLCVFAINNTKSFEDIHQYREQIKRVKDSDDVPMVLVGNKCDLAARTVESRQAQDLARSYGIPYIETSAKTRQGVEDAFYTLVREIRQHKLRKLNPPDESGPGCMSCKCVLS

SMILES | IC50 [1] [nM] | HRAS /KRAS (HRAS wild-type protein; [3]) | NRAS /KRAS [2, 4] | HRAS /KRAS (HRAS wild-type protein; [5]) | NRAS /KRAS [2, 6] | HRAS /KRAS (HRAS wild-type protein; [7]) | NRAS /KRAS [2, 8]
CCCN1CC(=O)NC2(CCCC2)C(=O)N(C)[C@@H](C2CCCC2)C(=O)N(C)[C@H](C(=O)N2CCOCC2)CC(=O)N(C)[C@@H](CC(C)C)C(=O)N[C@@H]([C@@H](C)CC)C(=O)N(C)CC(=O)N(C)CC(=O)N(CCC)[C@@H](Cc2ccc(C(F)(F)F)cc2)C(=O)N(C)CC(=O)N[C@@H](CCc2ccc(C(F)(F)F)c(Cl)c2)C1=O [PP0267] ([NMeL]I[Sar][Sar][NPrPhe(4-CF3)][Sar][hPhe(3-Cl-4-CF3)][NPrGly][Ac5c][NMeGly(cPent)][NMeD]-Morpholide; lactam N-11) | 38.2 | B (a compound having 3 or more and less than 10 is denoted as B) | B (a compound having 3 or more and less than 10 is denoted as B) | – | – | – | –
CC[C@H](C)[C@@H]1NC(=O)[C@H](CC(C)C)N(C)C(=O)C[C@@H](C(=O)N2CCOCC2)N(C)C(=O)[C@H](C2CCCC2)N(C)C(=O)C2(CCCC2)NC(=O)[C@@H]2CCCN2C(=O)[C@H](CCc2ccc(C(F)(F)F)c(Cl)c2)NC(=O)CN(C)C(=O)[C@H](Cc2ccc(OC(F)(F)F)cc2)N2C/C=C\CC[C@@H](C2=O)N(C)C(=O)CN(C)C1=O [PP0610] | 689 | – | – | B (a compound having 3 or more and less than 10 is denoted as B) | B (a compound having 3 or more and less than 10 is denoted as B) | – | –
CCO[C@@H]1C[C@H]2C(=O)NC3(CC(C)(C)C3)C(=O)N(C)[C@@H](C(CC)CC)C(=O)N(C)[C@H](C(=O)N3CCCC3)CC(=O)N(C)[C@H]3CCC/C=C/c4ccc(cc4)C[C@@H](C(=O)N(C)CC(=O)N[C@@H](CCc4ccc(Cl)c(Cl)c4)C(=O)N2C1)N1CC/C=C\C[C@@H](C1=O)N(C)C(=O)CN(C)C(=O)[C@H]([C@@H](C)CC)NC3=O [PP2581] | 32.1 | A (a compound having 10 or more and less than 20 is denoted as A) | AA (a compound having 20 or more is denoted as AA) | – | – | – | –
CCC(CC)[C@@H]1NC(=O)[C@H](CC(C)C)N(C)C(=O)C[C@@H](C(=O)N2CCOCC2)N(C)C(=O)[C@H](C2CCCC2)N(C)C(=O)C2(CCCC2)NC(=O)[C@@H]2CCCN2C(=O)[C@H](CCc2cc(F)c(C(F)(F)F)c(F)c2)NC(=O)CN(C)C(=O)[C@H](Cc2ccc(C(F)(F)F)cc2)N2CCCCC[C@@H](C2=O)N(C)C(=O)CN(C)C1=O [PP0523] | 734 | – | – | B (a compound having 3 or more and less than 10 is denoted as B) | A (a compound having 10 or more and less than 20 is denoted as A) | – | –
CC[C@H](C)[C@@H]1NC(=O)[C@H](CC)N(C)C(=O)C[C@@H](C(=O)N(CC)CC)N(C)C(=O)[C@H](C2CCCC2)N(C)C(=O)C2(CC(C)(C)C2)NC(=O)[C@@H]2C[C@H](C)CN2C(=O)[C@H](CCc2ccc(C(F)(F)F)c(OC)c2)NC(=O)CN(C)C(=O)[C@H](Cc2ccc(C)cc2)N2CC/C=C\C[C@@H](C2=O)N(C)C(=O)CN(C)C1=O [PP1839] | 24.3 | – | – | – | – | B (a compound having 3 or more and less than 10 is denoted as B) | A (a compound having 10 or more and less than 20 is denoted as A)
CC[C@H](C)[C@@H]1NC(=O)[C@H](CC(C)C)N(C)C(=O)C[C@@H](C(=O)N2CCOCC2)N(C)C(=O)[C@H](C2CCCC2)N(C)C(=O)C2(CCCC2)NC(=O)[C@@H]2CCCN2C(=O)[C@H](CCc2ccc(C(F)(F)F)c(Cl)c2)NC(=O)CN(C)C(=O)[C@H](Cc2ccc(F)cc2)N2CCCCC[C@@H](C2=O)N(C)C(=O)CN(C)C1=O [PP0612] | 43.3 | – | – | B (a compound having 3 or more and less than 10 is denoted as B) | B (a compound having 3 or more and less than 10 is denoted as B) | – | –
CCC[C@H]1C(=O)N[C@@H](C2CCCCC2)C(=O)N(C)CC(=O)N(C)[C@H]2C/C=C\CCN(C2=O)[C@@H](Cc2ccc(C(F)(F)F)cc2)C(=O)N(C)CC(=O)N[C@@H](CCc2ccc(C(F)(F)F)c(Cl)c2)C(=O)N2C[C@H](OCC)C[C@H]2C(=O)NC2(CC(C)(C)C2)C(=O)N(C)[C@@H]([C@@H](C)CC)C(=O)N(C)[C@H](C(=O)N(C)C)CC(=O)N1C [PP3015] | 103 | A (a compound having 10 or more and less than 20 is denoted as A) | AA (a compound having 20 or more is denoted as AA) | – | – | – | –

Compounds with a lower IC50 [1], results first:

IC50 [1] [nM] | SMILES | HRAS /KRAS (HRAS wild-type protein; [3]) | NRAS /KRAS [2, 4] | HRAS /KRAS (HRAS wild-type protein; [5]) | NRAS /KRAS [2, 6] | HRAS /KRAS (HRAS wild-type protein; [7]) | NRAS /KRAS [2, 8]
14.4 | CC[C@H](C)[C@@H]1NC(=O)[C@H](CC(C)C)N(C)C(=O)C[C@@H](C(=O)N2CCOCC2)N(C)C(=O)[C@H](C2CCCC2)N(C)C(=O)C2(CCCC2)NC(=O)[C@@H]2CCCN2C(=O)[C@H](CCc2ccc(C(F)(F)F)c(Cl)c2)NC(=O)CN(C)C(=O)[C@H](Cc2ccc(C)cc2)N(CC)C(=O)CN(C)C(=O)CN(C)C1=O [PP0022] ([NMeL]I[Sar][Sar][NEtPhe(4-Me)][Sar][hPhe(3-Cl-4-CF3)]P[Ac5c][NMeGly(cPent)][NMeD]-Morpholide; lactam N-11) | C (A compound having a KD ratio of 0.1 or more and less than 3 is denoted as C) | B (a compound having 3 or more and less than 10 is denoted as B) | – | – | – | –
18.3 | CC[C@H](C)[C@@H]1NC(=O)[C@H](CC(C)C)N(C)C(=O)C[C@@H](C(=O)N(CC)CC)N(C)C(=O)[C@H](C2CCCC2)N(C)C(=O)C2(CCC2)NC(=O)[C@@H]2C[C@H](C)CN2C(=O)[C@H](CCc2ccc(C(F)(F)F)c(OC)c2)NC(=O)CN(C)C(=O)[C@H](Cc2ccc(C)cc2)N2CC/C=C\C[C@@H](C2=O)N(C)C(=O)CN(C)C1=O [PP1885] | – | – | – | – | A (a compound having 10 or more and less than 20 is denoted as A) | AA (a compound having 20 or more is denoted as AA)
17.7 | CCCN(C)C(=O)[C@@H]1CC(=O)N(C)[C@@H](C(C)C)C(=O)N[C@@H]([C@@H](C)CC)C(=O)N(C)CC(=O)N(C)[C@H]2C/C=C\CCN(C2=O)[C@@H](Cc2ccc(C(F)(F)F)cc2)C(=O)N(C)CC(=O)N[C@@H](CCc2ccc(C(F)(F)F)c(OC)c2)C(=O)N2C[C@@H](C)C[C@H]2C(=O)NC2(CCC2)C(=O)N(C)[C@@H](C2CCCC2)C(=O)N1C [PP2067] | – | – | A (a compound having 10 or more and less than 20 is denoted as A) | AA (a compound having 20 or more is denoted as AA) | – | –
2.5 | CCC[C@H]1C(=O)N[C@@H]([C@@H](C)CC)C(=O)N(C)CC(=O)N(C)[C@H]2C/C=C\CCN(C2=O)[C@@H](Cc2ccc(C(F)(F)F)cc2)C(=O)N(C)CC(=O)N[C@@H](CCc2ccc(C(F)(F)F)c(OC)c2)C(=O)N2C[C@H](OCC)C[C@H]2C(=O)N(C)C2(CCC2)C(=O)N(C)[C@@H](C2CCCC2)C(=O)N(C)[C@H](C(=O)N2CCCC2)CC(=O)N1C [PP3105] | A (a compound having 10 or more and less than 20 is denoted as A) | AA (a compound having 20 or more is denoted as AA) | – | – | – | –
7.4 | CC[C@H](C)[C@@H]1NC(=O)[C@H](C)N(C)C(=O)C[C@@H](C(=O)N(C)C)N(C)C(=O)[C@H](C2CCCC2)N(C)C(=O)C2(CC(C)(C)C2)NC(=O)[C@@H]2CC(F)(F)CN2C(=O)[C@H](CCc2cc(F)c(C(F)(F)F)c(F)c2)NC(=O)CN(C)C(=O)[C@H](Cc2ccc(C(F)(F)F)cc2)N2CC/C=C\C[C@@H](C2=O)N(C)C(=O)CN(C)C1=O [PP1707] | – | – | – | – | A (a compound having 10 or more and less than 20 is denoted as A) | AA (a compound having 20 or more is denoted as AA)
3 | CCO[C@@H]1C[C@H]2C(=O)NC3(CC(C)(C)C3)C(=O)N(C)[C@@H](C3CCCC3)C(=O)N(C)[C@H](C(=O)N(C)C)CC(=O)N(C)[C@@H](CC(F)(F)F)C(=O)N[C@@H]([C@@H](C)CC)C(=O)N(C)CC(=O)N(C)[C@H]3C/C=C\CCN(C3=O)[C@@H](Cc3ccc(C(F)(F)F)cc3)C(=O)N(C)CC(=O)N[C@@H](CCc3ccc(C(F)(F)F)c(OC)c3)C(=O)N2C1 [PP1675] | – | – | – | – | B (a compound having 3 or more and less than 10 is denoted as B) | A (a compound having 10 or more and less than 20 is denoted as A)
4.5 | CCCN1C(=O)[C@@H]2CCN2C(=O)[C@H](C)N(C)C(=O)[C@H]([C@@H](C)CC)NC(=O)[C@H](CC(C)C)N(C)C(=O)C[C@@H](C(=O)N2CCCC2)N(C)C(=O)[C@H](C2CCCC2)N(C)C(=O)C2(CCCC2)NC(=O)[C@@H]2CCCN2C(=O)[C@H](CCc2ccc(C(F)(F)F)c(Cl)c2)NC(=O)CN(C)C(=O)[C@@H]1Cc1ccc(C(F)(F)F)cc1 [PP0179] ([NMeL]I[NMeA][Aze][NPrPhe(4-CF3)][Sar][hPhe(3-Cl-4-CF3)]P[Ac5c][NMeGly(cPent)][NMeD]-Pyrrolidide; lactam N-11) | B (a compound having 3 or more and less than 10 is denoted as B) | C (A compound having a KD ratio of 0.1 or more and less than 3 is denoted as C) | – | – | – | –
6.2 | CCO[C@@H]1C[C@H]2C(=O)NC3(CC(C)(C)C3)C(=O)N(C)[C@@H](C3CCCC3)C(=O)N(C)[C@H](C(=O)N(C)C)CC(=O)N(C)[C@@H](CC3CC3)C(=O)N[C@@H]([C@@H](C)CC)C(=O)N(C)CC(=O)N(C)[C@H]3C/C=C\CCN(C3=O)[C@@H](Cc3ccc(C(F)(F)F)cc3)C(=O)N(C)CC(=O)N[C@@H](CCc3cc(F)c(Cl)c(F)c3)C(=O)N2C1 [PP1759] | – | – | – | – | A (a compound having 10 or more and less than 20 is denoted as A) | A (a compound having 10 or more and less than 20 is denoted as A)

From patent EP4603105A1, “PHARMACEUTICAL COMPOSITION CONTAINING CYCLIC COMPOUND HAVING SELECTIVE KRAS INHIBITORY EFFECT AGAINST HRAS AND NRAS” (CHUGAI SEIYAKU KABUSHIKI KAISHA, priority 2022, dated 2024)
